Assay results: patent US8501804B2, “Bicyclic compound” (Takeda Pharmaceutical Company Limited, priority 2008, dated 2013)

Key:
human ACC2 (Nd) = molecular target: T1, human ACC2 (Nd) (Homo sapiens, UniProt O00763); assay: ACC2 inhibitory activity (malachite green); format: biochemical; settings: test compound 10 μM; for inhibition at 10 µM: read-out: ACC2 10 μM inhibitory rate (%)
T1 construct: His6 (from vector pFAST-BacHTa); made in house; host or cells: SF-9 insect cells, recombinant baculovirus BAC-ACC2 (Nd)
T1 sequence (O00763 117-2458 limits assumed): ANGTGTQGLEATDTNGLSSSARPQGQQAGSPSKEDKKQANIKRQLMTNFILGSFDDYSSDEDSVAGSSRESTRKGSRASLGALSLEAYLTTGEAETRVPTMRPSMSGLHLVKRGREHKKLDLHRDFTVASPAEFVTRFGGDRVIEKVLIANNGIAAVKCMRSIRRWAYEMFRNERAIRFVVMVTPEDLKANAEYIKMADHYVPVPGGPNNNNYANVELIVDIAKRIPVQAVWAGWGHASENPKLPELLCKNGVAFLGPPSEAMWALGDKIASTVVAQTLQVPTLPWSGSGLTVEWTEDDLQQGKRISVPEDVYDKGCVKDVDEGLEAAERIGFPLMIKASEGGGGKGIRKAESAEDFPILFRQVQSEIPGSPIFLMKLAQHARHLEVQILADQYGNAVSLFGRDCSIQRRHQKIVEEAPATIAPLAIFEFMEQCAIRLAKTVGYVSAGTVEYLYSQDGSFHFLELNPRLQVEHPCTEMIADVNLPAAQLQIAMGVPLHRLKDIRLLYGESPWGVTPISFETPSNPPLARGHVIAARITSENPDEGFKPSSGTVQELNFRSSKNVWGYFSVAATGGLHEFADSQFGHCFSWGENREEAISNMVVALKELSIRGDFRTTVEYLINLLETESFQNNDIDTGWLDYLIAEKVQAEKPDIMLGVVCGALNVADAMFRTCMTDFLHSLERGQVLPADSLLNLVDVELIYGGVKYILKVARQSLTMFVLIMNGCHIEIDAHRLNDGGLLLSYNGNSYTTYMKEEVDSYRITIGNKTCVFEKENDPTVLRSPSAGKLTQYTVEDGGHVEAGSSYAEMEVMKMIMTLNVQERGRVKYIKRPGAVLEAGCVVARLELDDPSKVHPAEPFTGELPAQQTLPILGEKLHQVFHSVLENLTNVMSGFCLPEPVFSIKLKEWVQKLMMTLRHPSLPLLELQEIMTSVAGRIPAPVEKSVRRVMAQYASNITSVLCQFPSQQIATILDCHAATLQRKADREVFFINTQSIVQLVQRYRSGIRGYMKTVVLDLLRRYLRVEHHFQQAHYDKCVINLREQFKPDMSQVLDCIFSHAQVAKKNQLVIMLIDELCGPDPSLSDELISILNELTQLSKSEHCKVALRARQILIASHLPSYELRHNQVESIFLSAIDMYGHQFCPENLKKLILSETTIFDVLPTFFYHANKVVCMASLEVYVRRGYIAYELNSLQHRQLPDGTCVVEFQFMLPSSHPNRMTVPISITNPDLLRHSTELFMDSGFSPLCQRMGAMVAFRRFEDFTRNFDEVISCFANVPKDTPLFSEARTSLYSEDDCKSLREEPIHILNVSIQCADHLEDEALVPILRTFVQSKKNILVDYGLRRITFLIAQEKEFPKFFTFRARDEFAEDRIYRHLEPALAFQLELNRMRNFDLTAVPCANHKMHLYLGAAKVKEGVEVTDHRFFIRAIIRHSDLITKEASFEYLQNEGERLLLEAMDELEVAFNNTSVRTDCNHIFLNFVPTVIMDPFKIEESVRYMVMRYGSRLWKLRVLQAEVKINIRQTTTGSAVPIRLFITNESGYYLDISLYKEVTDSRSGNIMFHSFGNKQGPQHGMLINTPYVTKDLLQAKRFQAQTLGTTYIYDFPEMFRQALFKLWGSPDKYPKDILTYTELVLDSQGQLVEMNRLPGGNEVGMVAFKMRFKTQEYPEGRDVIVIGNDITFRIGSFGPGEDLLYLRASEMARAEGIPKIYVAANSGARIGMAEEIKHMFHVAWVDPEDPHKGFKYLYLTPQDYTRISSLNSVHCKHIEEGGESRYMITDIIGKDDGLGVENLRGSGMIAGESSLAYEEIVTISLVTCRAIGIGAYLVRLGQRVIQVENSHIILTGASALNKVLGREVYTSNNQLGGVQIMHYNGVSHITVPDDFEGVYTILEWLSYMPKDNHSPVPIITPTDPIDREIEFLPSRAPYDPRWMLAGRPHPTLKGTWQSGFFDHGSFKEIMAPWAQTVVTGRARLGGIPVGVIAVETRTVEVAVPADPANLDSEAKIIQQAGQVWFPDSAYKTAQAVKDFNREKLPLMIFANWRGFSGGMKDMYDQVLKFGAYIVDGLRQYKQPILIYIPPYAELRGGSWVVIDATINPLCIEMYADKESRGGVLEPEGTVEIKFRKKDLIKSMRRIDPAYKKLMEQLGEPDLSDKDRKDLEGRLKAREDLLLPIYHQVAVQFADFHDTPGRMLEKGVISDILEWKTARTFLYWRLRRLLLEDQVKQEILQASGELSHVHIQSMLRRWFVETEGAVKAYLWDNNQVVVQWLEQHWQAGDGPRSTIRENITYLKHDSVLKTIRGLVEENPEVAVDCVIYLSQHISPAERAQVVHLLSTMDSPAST
Method in brief: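 Enzyme: N-terminally truncated human ACC2 lacking the mitochondrial targeting sequence, His-tagged, expressed in baculovirus-infected Sf9 cells and Ni-NTA purified. Working dilution 6.4 μg/ml in 50 mM HEPES pH 7.5, 10 mM MgCl2, 10 mM tripotassium citrate, 2 mM DTT, 0.75 mg/ml fatty-acid-free BSA. Test compound in DMSO.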

human ACC1 = molecular target: T2, human ACC1 (Homo sapiens, UniProt Q13085); assay: ACC1 inhibitory activity (malachite green); format: biochemical; settings: test compound 10 μM; for inhibition at 10 µM: read-out: ACC1 10 μM inhibitory rate (%)
T2 construct: His6 (from vector pFAST-BacHTc); made in house; host or cells: SF-9 insect cells, recombinant baculovirus BAC-ACC1
Method in brief: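 His-tagged human ACC1 from baculovirus-infected Sf9 cells was Ni-NTA purified, diluted to 8 μg/ml, and preincubated with compound for 60 min at 30 °C in HEPES pH 7.5 buffer with MgCl2, citrate, DTT and BSA. Substrate solution (50 mM KHCO3, 200 μM ATP, 200 μM acetyl-CoA) was added for 20 min at 30 °C. Phosphate was read by malachite green at 620 nm against no-compound and no-acetyl-CoA controls.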

Q: For `CC(=O)NC(C)c1cc2cc(OCc3ccc(OCC4CC4)nc3F)ccc2o1` (stereo not shown) [Example 153, N-[1-(5-{[6-(cyclopropylmethoxy)-2-fluoropyridin-3-yl]methoxy}-1-benzofuran-2-yl)ethyl]acetamide], which inhibition at 10 µM (human ACC2 (Nd)) is on record?
A: The inhibition at 10 µM was 70%.

Q: What about the inhibition at 10 µM (human ACC1) of the same molecule?
A: The inhibition at 10 µM was 24%.

Q: Which inhibition at 10 µM (human ACC2 (Nd)) does the source give for `CC(=O)NC(C)c1cc2cc(OCc3cnc(OCC4CC4)cc3F)ccc2o1` (stereo not shown) [Example 154, N-[1-(5-{[6-(cyclopropylmethoxy)-4-fluoropyridin-3-yl]methoxy}-1-benzofuran-2-yl)ethyl]acetamide] here?
A: The inhibition at 10 µM was 78%.

Q: And the inhibition at 10 µM (human ACC1)?
A: Its inhibition at 10 µM is 39%.

Q: What does the source list for `CC(=O)NC(C)c1coc2cc(OCc3ccc(OCC4CC4)nc3F)ccc12` (stereo not shown) [Example 164, N-[1-(6-{[6-(cyclopropylmethoxy)-2-fluoropyridin-3-yl]methoxy}-1-benzofuran-3-yl)ethyl]acetamide]?
A: inhibition at 10 µM (human ACC2 (Nd)): 93%; inhibition at 10 µM (human ACC1): 50%

Q: `CSCCOc1ccc(CCc2ccc3cc(C(C)NC(C)=O)oc3c2)cc1` (stereo not shown) [Example 169, N-{1-[6-(2-{4-[2-(methylsulfanyl)ethoxy]phenyl}ethyl)-1-benzofuran-2-yl]ethyl}acetamide] was tested. Which inhibition at 10 µM (human ACC2 (Nd)) did it give?
A: Its inhibition at 10 µM is 75%.

Q: What about the inhibition at 10 µM (human ACC1) of the same molecule?
A: Its inhibition at 10 µM is 23%.

Q: What does the source list for `CC(=O)NC(C)c1cc2ccc(CCc3ccc(OC4CCCC4)cc3)cc2o1` (stereo not shown) [Example 170, N-[1-(6-{2-[4-(cyclopentyloxy)phenyl]ethyl}-1-benzofuran-2-yl)ethyl]acetamide]?
A: inhibition at 10 µM (human ACC2 (Nd)): 84%; inhibition at 10 µM (human ACC1): 30%

Q: Which inhibition at 10 µM (human ACC2 (Nd)) does the source give for `CC(=O)NC(C)c1cc2ccc(CCc3ccc(OCCC4CC4)cc3)cc2o1` (stereo not shown) [Example 174, N-[1-(6-{2-[4-(2-cyclopropylethoxy)phenyl]ethyl}-1-benzofuran-2-yl)ethyl]acetamide] here?
A: Its inhibition at 10 µM is 80%.

Q: What about the inhibition at 10 µM (human ACC1) of the same molecule?
A: Its inhibition at 10 µM is 34%.

Q: With `CCOc1ccc(COc2ccc3cc(C(C)NC(C)=O)oc3c2)cc1Br` (stereo not shown) [Example 175, N-(1-{6-[(3-bromo-4-ethoxybenzyl)oxy]-1-benzofuran-2-yl}ethyl)acetamide] as the molecule, how does the inhibition at 10 µM (human ACC2 (Nd)) read?
A: The inhibition at 10 µM was 74%.

Q: What about the inhibition at 10 µM (human ACC1) of the same molecule?
A: The inhibition at 10 µM was 15%.

Q: `CC(Nc1ccon1)c1cc2ccc(CCc3ccc(OCC4CC4)cc3)cc2o1` (stereo not shown) [Example 176, N-[1-(6-{2-[4-(cyclopropylmethoxy)phenyl]ethyl}-1-benzofuran-2-yl)ethyl]isoxazol-3-amine] was tested. Which inhibition at 10 µM (human ACC2 (Nd)) did it give?
A: The inhibition at 10 µM was 88%.

Q: And the inhibition at 10 µM (human ACC1)?
A: The inhibition at 10 µM was 31%.

Q: With `CCCCOc1ccc(CCc2ccc3cc(C(C)NC(C)=O)oc3c2)cc1` (stereo not shown) [Example 189 (retention time shorter)] as the molecule, how does the “ACC2 10 μM inhibitory rate (%)” value (human ACC2 (Nd)) read?
A: Its value is 77%.

Q: What about the “ACC1 10 μM inhibitory rate (%)” value (human ACC1) of the same molecule?
A: Its value is 37%.

Q: How did the inhibition at 10 µM (human ACC2 (Nd)) turn out when `CCOc1ccc(CCc2ccc3cc(C(C)NC(C)=O)oc3c2)cc1` (stereo not shown) [Example 190 (retention time longer), N-(1-{6-[2-(4-ethoxyphenyl)ethyl]-1-benzofuran-2-yl}ethyl)acetamide] was run?
A: The inhibition at 10 µM was 79%.

Q: And the inhibition at 10 µM (human ACC1)?
A: The inhibition at 10 µM was 29%.

Q: What does the source list for `CC(=O)NC(C)c1cc2ccc(CCc3ccc(OCC4CC4)cc3)cc2o1` (stereo not shown) [Example 191 (retention time shorter), N-[1-(6-{2-[4-(cyclopropylmethoxy)phenyl]ethyl}-1-benzofuran-2-yl)ethyl]acetamide]?
A: ACC2 10 μM inhibitory rate (%) (human ACC2 (Nd)): 75%; ACC1 10 μM inhibitory rate (%) (human ACC1): 20%
